Reference: patent publication US20230365546A1, “5-SUBSTITUTED INDOLE 3-AMIDE DERIVATIVES, PREPARATION METHOD AND USE THEREOF” (ORIGIANT PHARMACEUTICAL CO., LTD, priority 2020, published 2023)

Columns and labels:
Rsk3(h) = Rsk3(h) (Homo sapiens (Human), UniProt Q15349); assay: Kinase Profiler 10 μM panel
Procedure: (§1) In vitro kinase assays were conducted using Kinase Profiler services provided by Eurofins. The experimental method was as follows: the small molecule compound to be tested (0.001-10 μM), the protein kinase to be tested were incubated with a buffer containing substrate, 10 mM magnesium acetate, and [γ-^33P-ATP], the reaction was started by adding Mg\TPmix, after incubation for a period of time at room temperature, a 3% phosphate solution was added to the buffer to stop the reaction. Subsequently, 10 μL of the reaction mixture was quantitatively pipetted onto P30 filter paper, which was washed three times with 75 mM phosphate solution and then once with methanol. The P30 filter paper was air-dried and scintillation fluid was added for scintillation counting.

FGFR2(h) = FGFR2(h) (Homo sapiens (Human), UniProt P21802); assay: Kinase Profiler 10 μM panel
Procedure: as §1

Met(D1246H)(h) = Met(D1246H)(h) (Homo sapiens (Human), UniProt P08581, D1228H); assay: Kinase Profiler 10 μM panel
Procedure: as §1

ALK1(h) = ALK1(h) (Homo sapiens (Human), UniProt P37023); assay: Kinase Profiler 10 μM panel
Procedure: as §1

HIPK3(h) = HIPK3(h) (Homo sapiens (Human), UniProt Q9H422); assay: Kinase Profiler 10 μM panel
Procedure: as §1

VRK2(h) = VRK2(h) (Homo sapiens (Human), UniProt Q86Y07); assay: Kinase Profiler 10 μM panel
Procedure: as §1

TLK1(h) = TLK1(h) (Homo sapiens (Human), UniProt Q9UKI8); assay: Kinase Profiler 10 μM panel
Procedure: as §1

[1] = system: 422 kinases (including mutants); assay: Kinase selectivity profile over the Eurofins panel; format: biochemical; conditions: 10 μM, Tables 3 and 4, FIGS. 1 and 2
From the text: The selectivity profiles for Compounds 34 and 94 were plotted according to the data in Table 3 and Table 4. Wherein the red circular spot indicated the kinase were inhibited obviously, and the larger the radius of the red spot, the higher the inhibition against the kinase, and vice versa.

MAPKAP-K2(h) = MAPKAP-K2(h) (Homo sapiens (Human), UniProt P49137); assay: Kinase Profiler 10 μM panel
Procedure: as §1

EGFR(T790M,L858R)(h) = EGFR(T790M,L858R)(h) (Homo sapiens (Human), UniProt P00533, L858R/T790M); assay: Kinase Profiler 10 μM panel
Procedure: as §1

DYRK3(h) = DYRK3(h) (Homo sapiens (Human), UniProt O43781); assay: Kinase Profiler 10 μM panel
Procedure: as §1

PDK1(h) = PDK1(h) (Homo sapiens (Human), UniProt O15530); assay: Kinase Profiler 10 μM panel
Procedure: as §1

Ret (V804L)(h) = Ret (V804L)(h) (Homo sapiens (Human), UniProt P07949, V804L); assay: Kinase Profiler 10 μM panel
Procedure: as §1

PDGFRα(V561D)(h) = PDGFRα(V561D)(h) (Homo sapiens (Human), UniProt P16234, V561D); assay: Kinase Profiler 10 μM panel
PDGFRα(V561D)(h), sequence (P16234 24-1089 V561D): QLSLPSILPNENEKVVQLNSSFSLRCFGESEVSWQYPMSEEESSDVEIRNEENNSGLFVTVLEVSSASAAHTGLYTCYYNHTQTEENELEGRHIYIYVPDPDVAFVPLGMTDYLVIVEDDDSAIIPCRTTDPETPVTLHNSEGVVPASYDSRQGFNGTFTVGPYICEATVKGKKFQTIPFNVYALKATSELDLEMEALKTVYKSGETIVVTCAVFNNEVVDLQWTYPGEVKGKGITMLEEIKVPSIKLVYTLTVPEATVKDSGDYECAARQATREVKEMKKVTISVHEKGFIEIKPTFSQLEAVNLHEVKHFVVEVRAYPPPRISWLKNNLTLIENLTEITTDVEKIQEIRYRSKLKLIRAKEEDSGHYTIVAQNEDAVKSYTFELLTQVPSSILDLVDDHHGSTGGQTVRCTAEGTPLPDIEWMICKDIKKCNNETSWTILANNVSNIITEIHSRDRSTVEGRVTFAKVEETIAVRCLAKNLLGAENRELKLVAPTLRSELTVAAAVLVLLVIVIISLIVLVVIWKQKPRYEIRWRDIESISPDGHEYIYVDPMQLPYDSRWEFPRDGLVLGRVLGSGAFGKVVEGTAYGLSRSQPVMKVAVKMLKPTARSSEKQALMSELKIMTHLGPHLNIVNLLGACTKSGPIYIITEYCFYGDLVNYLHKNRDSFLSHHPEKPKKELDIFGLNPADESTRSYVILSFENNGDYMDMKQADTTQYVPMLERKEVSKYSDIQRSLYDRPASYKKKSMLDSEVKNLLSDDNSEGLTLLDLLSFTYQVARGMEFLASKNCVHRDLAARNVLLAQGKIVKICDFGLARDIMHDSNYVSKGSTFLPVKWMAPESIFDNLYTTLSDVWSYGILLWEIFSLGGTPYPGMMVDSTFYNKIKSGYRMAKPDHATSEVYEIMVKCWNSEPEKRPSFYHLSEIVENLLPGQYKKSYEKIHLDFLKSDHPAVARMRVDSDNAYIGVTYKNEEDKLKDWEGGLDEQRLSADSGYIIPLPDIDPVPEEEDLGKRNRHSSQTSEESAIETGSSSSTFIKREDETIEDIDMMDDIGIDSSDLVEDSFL
Procedure: as §1

CDK13/cyclinK(h) = CDK13/cyclinK(h) (Homo sapiens (Human), UniProt Q14004); assay: Kinase Profiler 10 μM panel; format: biochemical
Procedure: as §1

DAPK1(h) = DAPK1(h) (Homo sapiens (Human), UniProt P53355); assay: Kinase Profiler 10 μM panel
Procedure: as §1

Fms(h) = Fms(h) (Homo sapiens (Human), UniProt P07333); assay: Kinase Profiler 10 μM panel
Procedure: as §1

SNRK(h) = SNRK(h) (Homo sapiens (Human), UniProt Q9NRH2); assay: Kinase Profiler 10 μM panel
Procedure: as §1

TTBK2(h) = TTBK2(h) (Homo sapiens (Human), UniProt Q6IQ55); assay: Kinase Profiler 10 μM panel
Procedure: as §1

RIPK1 = RIPK1 (Homo sapiens (Human), UniProt Q13546); assay: In vitro kinase assay (Eurofins Kinase Profiler), IC50; format: biochemical; conditions: 0.001-10 μM, read-out: RIPK 1 (IC50)
Procedure: as §1

TAO2(h) = TAO2(h) (Homo sapiens (Human), UniProt Q9UL54); assay: Kinase Profiler 10 μM panel
TAO2(h), sequence (Q9UL54 whole entry): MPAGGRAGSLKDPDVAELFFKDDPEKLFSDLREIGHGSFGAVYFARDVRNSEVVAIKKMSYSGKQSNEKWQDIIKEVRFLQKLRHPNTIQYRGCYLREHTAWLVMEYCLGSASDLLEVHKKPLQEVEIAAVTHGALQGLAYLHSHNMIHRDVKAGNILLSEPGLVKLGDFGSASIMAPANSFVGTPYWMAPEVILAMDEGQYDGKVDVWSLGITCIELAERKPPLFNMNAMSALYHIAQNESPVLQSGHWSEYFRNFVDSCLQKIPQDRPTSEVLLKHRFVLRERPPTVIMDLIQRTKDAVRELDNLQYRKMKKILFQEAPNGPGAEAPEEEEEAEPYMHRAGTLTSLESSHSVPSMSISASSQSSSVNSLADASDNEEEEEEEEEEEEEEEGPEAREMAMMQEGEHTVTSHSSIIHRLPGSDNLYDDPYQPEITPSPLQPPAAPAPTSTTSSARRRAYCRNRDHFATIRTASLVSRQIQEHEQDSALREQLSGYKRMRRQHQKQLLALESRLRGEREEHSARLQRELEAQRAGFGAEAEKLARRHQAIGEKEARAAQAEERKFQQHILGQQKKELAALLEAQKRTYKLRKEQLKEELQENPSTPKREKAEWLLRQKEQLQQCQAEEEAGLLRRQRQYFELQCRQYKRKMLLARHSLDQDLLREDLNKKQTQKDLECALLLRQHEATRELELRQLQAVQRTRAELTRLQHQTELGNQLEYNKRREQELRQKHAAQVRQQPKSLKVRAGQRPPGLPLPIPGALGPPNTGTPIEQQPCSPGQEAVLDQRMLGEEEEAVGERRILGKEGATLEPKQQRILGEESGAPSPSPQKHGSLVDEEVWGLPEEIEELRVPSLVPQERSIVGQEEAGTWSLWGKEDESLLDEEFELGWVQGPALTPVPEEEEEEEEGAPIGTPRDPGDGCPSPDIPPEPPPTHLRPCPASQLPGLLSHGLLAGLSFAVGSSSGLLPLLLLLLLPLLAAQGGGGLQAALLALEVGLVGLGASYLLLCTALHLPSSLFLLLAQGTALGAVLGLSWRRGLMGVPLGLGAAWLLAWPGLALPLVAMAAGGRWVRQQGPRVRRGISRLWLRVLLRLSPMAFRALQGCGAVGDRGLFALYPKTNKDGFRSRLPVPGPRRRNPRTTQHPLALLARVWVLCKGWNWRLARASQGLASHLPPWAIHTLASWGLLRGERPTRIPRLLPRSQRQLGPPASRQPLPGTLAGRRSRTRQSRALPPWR
Procedure: as §1

MST1(h) = MST1(h) (Homo sapiens (Human), UniProt Q13043); assay: Kinase Profiler 10 μM panel
Procedure: as §1

PKD3(h) = PKD3(h) (Homo sapiens (Human), UniProt O94806); assay: Kinase Profiler 10 μM panel
Procedure: as §1

Pim-2(h) = Pim-2(h) (Homo sapiens (Human), UniProt Q9P1W9); assay: Kinase Profiler 10 μM panel
Pim-2(h), sequence (Q9P1W9 whole entry): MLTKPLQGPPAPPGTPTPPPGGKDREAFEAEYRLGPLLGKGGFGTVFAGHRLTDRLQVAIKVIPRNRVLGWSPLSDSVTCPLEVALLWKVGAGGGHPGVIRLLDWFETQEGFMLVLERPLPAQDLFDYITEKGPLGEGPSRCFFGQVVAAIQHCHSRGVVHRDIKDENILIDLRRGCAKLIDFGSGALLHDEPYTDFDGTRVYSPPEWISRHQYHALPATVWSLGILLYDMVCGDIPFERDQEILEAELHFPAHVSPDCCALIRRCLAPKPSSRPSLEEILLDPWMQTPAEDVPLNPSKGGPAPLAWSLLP
Procedure: as §1

CLK4(h) = CLK4(h) (Homo sapiens (Human), UniProt Q9HAZ1); assay: Kinase Profiler 10 μM panel
Procedure: as §1

Hck(h) activated = Hck(h) activated (Homo sapiens (Human), UniProt P08631); assay: Kinase Profiler 10 μM panel
Procedure: as §1

SGK3(h) = SGK3(h) (Homo sapiens (Human), UniProt Q96BR1); assay: Kinase Profiler 10 μM panel
SGK3(h), sequence (Q96BR1 whole entry): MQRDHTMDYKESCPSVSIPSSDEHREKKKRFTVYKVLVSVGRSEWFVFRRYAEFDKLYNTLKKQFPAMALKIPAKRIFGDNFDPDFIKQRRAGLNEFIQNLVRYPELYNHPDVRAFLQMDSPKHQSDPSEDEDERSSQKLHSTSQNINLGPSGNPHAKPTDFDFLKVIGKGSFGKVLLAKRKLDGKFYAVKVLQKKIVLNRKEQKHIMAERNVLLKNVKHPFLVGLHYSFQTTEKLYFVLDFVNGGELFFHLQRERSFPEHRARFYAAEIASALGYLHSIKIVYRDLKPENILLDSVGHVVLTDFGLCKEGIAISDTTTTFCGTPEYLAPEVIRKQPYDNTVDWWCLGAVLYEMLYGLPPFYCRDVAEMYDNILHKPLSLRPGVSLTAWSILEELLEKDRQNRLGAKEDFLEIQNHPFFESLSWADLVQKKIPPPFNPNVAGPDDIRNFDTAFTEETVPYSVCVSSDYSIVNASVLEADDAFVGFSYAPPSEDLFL
Procedure: as §1

mTOR/FKBP12(h) = mTOR/FKBP12(h) (Homo sapiens (Human), UniProt P42345); assay: Kinase Profiler 10 μM panel
Procedure: as §1

VRK1(h) = VRK1(h) (Homo sapiens (Human), UniProt Q99986); assay: Kinase Profiler 10 μM panel
Procedure: as §1

Tie2 (h) = Tie2 (h) (Homo sapiens (Human), UniProt Q02763); assay: Kinase Profiler 10 μM panel
Tie2 (h), sequence (Q02763 23-1124): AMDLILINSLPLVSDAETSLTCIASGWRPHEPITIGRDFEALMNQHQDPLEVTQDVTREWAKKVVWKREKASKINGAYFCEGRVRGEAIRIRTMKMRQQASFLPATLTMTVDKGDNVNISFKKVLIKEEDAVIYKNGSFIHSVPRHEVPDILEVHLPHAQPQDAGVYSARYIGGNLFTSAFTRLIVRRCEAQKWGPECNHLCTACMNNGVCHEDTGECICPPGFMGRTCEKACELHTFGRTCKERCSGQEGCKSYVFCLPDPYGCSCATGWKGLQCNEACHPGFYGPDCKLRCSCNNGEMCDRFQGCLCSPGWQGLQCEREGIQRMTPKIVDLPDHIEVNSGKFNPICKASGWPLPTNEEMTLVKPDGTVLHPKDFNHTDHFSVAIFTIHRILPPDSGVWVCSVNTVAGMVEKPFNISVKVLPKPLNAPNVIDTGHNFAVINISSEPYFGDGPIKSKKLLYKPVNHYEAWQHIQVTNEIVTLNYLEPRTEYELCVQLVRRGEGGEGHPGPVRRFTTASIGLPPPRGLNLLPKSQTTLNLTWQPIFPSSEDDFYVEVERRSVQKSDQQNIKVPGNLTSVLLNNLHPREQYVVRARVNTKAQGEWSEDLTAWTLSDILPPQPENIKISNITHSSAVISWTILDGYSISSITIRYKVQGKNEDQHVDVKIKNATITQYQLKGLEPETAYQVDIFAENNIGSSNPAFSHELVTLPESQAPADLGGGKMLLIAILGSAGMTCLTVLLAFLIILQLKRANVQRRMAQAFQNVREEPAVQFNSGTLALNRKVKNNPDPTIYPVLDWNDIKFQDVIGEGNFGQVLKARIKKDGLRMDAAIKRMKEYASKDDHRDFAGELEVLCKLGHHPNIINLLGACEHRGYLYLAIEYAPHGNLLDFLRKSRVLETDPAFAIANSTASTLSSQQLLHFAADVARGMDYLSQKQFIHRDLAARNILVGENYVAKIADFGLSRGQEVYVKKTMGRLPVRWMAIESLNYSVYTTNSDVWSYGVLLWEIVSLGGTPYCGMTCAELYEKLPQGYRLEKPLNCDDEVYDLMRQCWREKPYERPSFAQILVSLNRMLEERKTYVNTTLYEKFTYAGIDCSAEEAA
Procedure: as §1

CDK14/cyclinY(h) = CDK14/cyclinY(h) (Homo sapiens (Human), UniProt O94921); assay: Kinase Profiler 10 μM panel
Procedure: as §1

Abl(T315I)(h) = Abl(T315I)(h) (Homo sapiens (Human), UniProt P00519, T315I); assay: Kinase Profiler 10 μM panel
Procedure: as §1

FGFR2(h), sequence (P21802 22-821): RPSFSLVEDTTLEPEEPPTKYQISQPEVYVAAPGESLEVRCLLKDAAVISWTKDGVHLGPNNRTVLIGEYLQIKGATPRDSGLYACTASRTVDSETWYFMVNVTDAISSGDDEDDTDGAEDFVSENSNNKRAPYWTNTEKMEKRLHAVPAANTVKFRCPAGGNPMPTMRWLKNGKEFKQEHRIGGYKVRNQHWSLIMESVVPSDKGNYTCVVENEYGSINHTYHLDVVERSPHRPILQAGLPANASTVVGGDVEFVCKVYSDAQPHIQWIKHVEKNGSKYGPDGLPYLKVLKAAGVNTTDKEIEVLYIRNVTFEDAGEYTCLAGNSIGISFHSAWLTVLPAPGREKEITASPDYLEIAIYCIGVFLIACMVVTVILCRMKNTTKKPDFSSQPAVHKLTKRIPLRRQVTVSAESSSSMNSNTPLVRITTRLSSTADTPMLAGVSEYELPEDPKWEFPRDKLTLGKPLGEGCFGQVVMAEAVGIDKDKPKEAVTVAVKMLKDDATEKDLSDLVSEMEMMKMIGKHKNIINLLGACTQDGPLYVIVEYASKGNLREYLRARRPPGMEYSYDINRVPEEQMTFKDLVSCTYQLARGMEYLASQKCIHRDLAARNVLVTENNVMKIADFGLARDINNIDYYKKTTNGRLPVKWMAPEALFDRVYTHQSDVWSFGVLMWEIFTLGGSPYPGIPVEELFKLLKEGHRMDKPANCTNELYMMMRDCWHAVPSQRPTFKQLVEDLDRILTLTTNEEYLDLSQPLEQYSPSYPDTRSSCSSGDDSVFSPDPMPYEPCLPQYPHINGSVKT

How did the Inhibition ratio/% (Rsk3(h)) turn out when `C[C@H](NC(=O)c1cn(C)c2ccc(-c3ccn4nc(NC(=O)C5CC5)nc4c3)cc12)c1cccc(F)c1` [Compound 94, (S)-5-(2-(cyclopropanecarboxamido)-[1,2,4]triazolo[1,5-a]pyridin-7-yl)-N-(1-(3-fluorophenyl)ethyl)-1-methyl-1H-indole-3-carboxamide] was run?
The Inhibition ratio/% was 27%.

And the Inhibition ratio/% (FGFR2(h))?
Its Inhibition ratio/% is −13%.

What about the Inhibition ratio/% (Met(D1246H)(h)) of the same compound?
The Inhibition ratio/% was 34%.

What about the Inhibition ratio/% (ALK1(h)) of the same compound?
Its Inhibition ratio/% is 0%.

What about the Inhibition ratio/% (HIPK3(h)) of the same compound?
The Inhibition ratio/% was 62%.

And the Inhibition ratio/% (VRK2(h))?
Its Inhibition ratio/% is −18%.

What about the Inhibition ratio/% (TLK1(h)) of the same compound?
Its Inhibition ratio/% is 11%.

What about the Kinase selectivity [1] of the same compound?
The Kinase selectivity was “good kinase selectivity”.

What about the Inhibition ratio/% (MAPKAP-K2(h)) of the same compound?
The Inhibition ratio/% was −1%.

And the Inhibition ratio/% (EGFR(T790M,L858R)(h); EGFR(T790M, L858R)(h))?
The Inhibition ratio/% was 52%.

And the Inhibition ratio/% (DYRK3(h))?
Its Inhibition ratio/% is 10%.

And the Inhibition ratio/% (PDK1(h))?
The Inhibition ratio/% was 18%.

And the Inhibition ratio/% (Ret (V804L)(h))?
Its Inhibition ratio/% is 50%.

And the Inhibition ratio/% (PDGFRα(V561D)(h); printed in Table 4 as PDGFRβ (V561D)(h))?
The Inhibition ratio/% was 38%.

And the Inhibition ratio/% (CDK13/cyclinK(h))?
The Inhibition ratio/% was 66%.

And the Inhibition ratio/% (DAPK1(h))?
The Inhibition ratio/% was 40%.

What about the Inhibition ratio/% (Fms(h)) of the same compound?
Its Inhibition ratio/% is 22%.

What about the Inhibition ratio/% (SNRK(h)) of the same compound?
The Inhibition ratio/% was 25%.

And the Inhibition ratio/% (TTBK2(h))?
Its Inhibition ratio/% is −16%.

And the IC50 (RIPK1)?
Its IC50 is 1 to 10 nM.

What about the Inhibition ratio/% (TAO2(h)) of the same compound?
The Inhibition ratio/% was −14%.

And the Inhibition ratio/% (MST1(h))?
The Inhibition ratio/% was 20%.

What about the Inhibition ratio/% (PKD3(h)) of the same compound?
Its Inhibition ratio/% is −13%.

What about the Inhibition ratio/% (Pim-2(h)) of the same compound?
The Inhibition ratio/% was −14%.

And the Inhibition ratio/% (CLK4(h))?
Its Inhibition ratio/% is 79%.

And the Inhibition ratio/% (Hck(h) activated)?
Its Inhibition ratio/% is −12%.

What about the Inhibition ratio/% (SGK3(h)) of the same compound?
Its Inhibition ratio/% is 41%.

And the Inhibition ratio/% (mTOR/FKBP12(h))?
The Inhibition ratio/% was 36%.

And the Inhibition ratio/% (VRK1(h))?
The Inhibition ratio/% was 46%.

And the Inhibition ratio/% (Tie2 (h))?
Its Inhibition ratio/% is 30%.

And the Inhibition ratio/% (CDK14/cyclinY(h))?
Its Inhibition ratio/% is 55%.

What about the Inhibition ratio/% (Abl(T315I)(h)) of the same compound?
Its Inhibition ratio/% is 33%.

What does the source list for `C[C@H](NC(=O)c1c[nH]c2ccc(-c3ccc4nc(NC(=O)C5CC5)sc4c3)cc12)c1cccc(F)c1` [Compound 34, (S)-5-(2-(cyclopropanecarboxamido)benzo[d]thiazol-6-yl)-N-(1-(3-fluorophenyl)ethyl)-1H-indole-3-carboxamide]?
Inhibition ratio (Rsk3(h)): 49%; Inhibition ratio (FGFR2(h)): 63%; Inhibition ratio (Met(D1246H)(h)): 95%; Inhibition ratio (ALK1(h)): 50%; Inhibition ratio (HIPK3(h)): 79%; Inhibition ratio (VRK2(h)): 21%; Inhibition ratio (TLK1(h)): 19%; Kinase selectivity [1]: good kinase selectivity; Inhibition ratio (MAPKAP-K2(h)): −7%; Inhibition ratio (EGFR(T790M,L858R)(h); EGFR(T790M,L858R)(h)): 84%; Inhibition ratio (DYRK3(h)): 48%; Inhibition ratio (PDK1(h)): 19%; Inhibition ratio (Ret (V804L)(h)): 99%; Inhibition ratio (PDGFRα(V561D)(h); PDGFRα(V561D)(h)): 99%; Inhibition ratio (CDK13/cyclinK(h)): 19%; Inhibition ratio (DAPK1(h)): 12%; Inhibition ratio (Fms(h)): 21%; Inhibition ratio (SNRK(h)): −24%; Inhibition ratio (TTBK2(h)): 8%; IC50 (RIPK1): 10 to 100 nM; Inhibition ratio (TAO2(h)): 58%; Inhibition ratio (MST1(h)): 5%; Inhibition ratio (PKD3(h)): −5%; Inhibition ratio (Pim-2(h)): −5%; Inhibition ratio (CLK4(h)): 79%; Inhibition ratio (Hck(h) activated): 26%; Inhibition ratio (SGK3(h)): −1%; Inhibition ratio (mTOR/FKBP12(h)): 10%; Inhibition ratio (VRK1(h)): 2%; Inhibition ratio (Tie2 (h)): 96%; Inhibition ratio (CDK14/cyclinY(h)): 47%; Inhibition ratio (Abl(T315I)(h)): 101%
